According to US20100022652A1, “Antimicrobial and Anticoagulant Compositions and Methods” (Tyco Healthcare Group LP, priority 2008, published 2010):

Tests used:
[1] = system: Pseudomonas aeruginosa (ATCC 27853); assay: Checkerboard titration / micro-dilution antimicrobial synergy evaluation (MIC, FIC); format: cell-based
Method: The combinations having an FIC index of ≦0.5 are considered synergistic while a FIC index of >0.5 but ≦1 are considered partially synergistic.
First, potential antimicrobial synergy in a composition having a combination of EDTA and NAC components was investigated with respect to the Pseudomonas aeruginosa (ATCC 27853) microorganism.
According to this method the stock solutions are prepared having a concentration equivalent or higher than twice the MIC of the components among which synergy is to be tested.
As the solutions get turbid, a higher optical density values generated. Generally speaking, increased turbidity, and thus higher optical density readings, are indicative of the presence of micro organisms in the solution. During analysis of the samples, optical density measurements above a predetermined cutoff value is indicative that there are microorganisms present in the solutions or samples, and are thus characterized by positive growth (+), while optical density readings which fall below the cutoff value can be characterized by negative growth (−). A number of the OD measurements were made (OD1, OD2, OD3), and the mean value calculated.

[2] = system: clot formation in normal anticoagulated plasma; assay: Prothrombin time (PT) assay, PT converted to INR; format: biochemical, human; conditions: ISI 1.65
Method: The Prothrombin Time (PT) Assay primarily measures the time required for the clot formation in a test sample. Per the assay, the test samples first mixed with normal anticoagulated plasma in a ratio of 1:9 and incubated for 2 minutes at Room temperature. Then tissue thromboplastin with calcium ions is added to the test samples. The samples are then incubated for 2 minutes at 37° C. Tissue thromboplastin and calcium ions is added to normal anticoagulated plasma mixed with formulation, to initiate the clotting mechanism leading to formation of a fibrin clot. The coagulation analyzer is utilized to record the PT required for clot formation. The PT so obtained is then converted to International Normalized Ratio (INR) by utilizing the following formula:
INR=(PTTest Sample/PTControl Level 1)^ISI;
wherein ISI (International Sensitivity Index)—indicates the sensitivity of individual thromboplastin. The value of ISI utilized in the anticoagulant investigations reported herein is 1.65.
If the deficiency exists within coagulation pathway (for example test blood contains heparin or other anticoagulant) the time required for clot formation will be prolonged. Any INR values ≧ that of abnormal plasma level 2 (e.g., TriniCHECK™ Level 2; Trinity Biotech) are considered indicative of deficiency within the coagulation pathway, and thus indicative of highly anticoagulative properties. Any INR values higher than 5.5 are considered indicative of highly anticoagulant behavior. Therefore, the strength of an anticoagulant can be characterized by the INR value, i.e., the larger the INR value the stronger the anticoagulant properties.

SMILES	MIC [1]	INR ([2]; 4 wt % DEDTA alone)	INR ([2]; at 8 wt %)
O=C([O-])CN(CCN(CC(=O)[O-])CC(=O)O)CC(=O)O.[Na+].[Na+] [DEDTA, disodium EDTA]	0.25 wt %	16.7	> 233
CC(=O)N[C@@H](CS)C(=O)O [NAC, N-Acetyl Cysteine]	0.25 wt %	–	> 26
